Each structure is given as a SMILES string. ≈ marks a conversion by molar mass, not a printed value. A value given as a limit tells only on which side of the number the result lay.

The conditions of the data set: buffer; pH 7.4; 200.0 µM.
The solubility (kinetic) is the concentration staying in solution when a stock, usually in DMSO, is diluted into the medium. The compound `O=C1C=C(NCc2ccccc2)c2ccccc2C1=O` showed a kinetic solubility of 4.6 µg/mL (≈ 17.5 µM).
`CSc1nc(N2CCOCC2)c2c(c1C#N)CC(C(C)C)OC2` (configuration not stated) came in with a kinetic solubility below 0.2 µg/mL.
`CNC(=O)c1ccccc1Nc1ccc(SC(F)F)cc1` gave a solubility (kinetic) of 28.6 µg/mL (≈ 92.8 µM).
For `COc1ccc(C2Nc3ccccc3C(=O)N2Cc2ccccc2)cc1OC` (configuration not stated) the value was below 0.4 µg/mL; for `O=C(c1ccc([N+](=O)[O-])cc1[N+](=O)[O-])N1CCc2ccccc21`, 4.2 µg/mL (≈ 13.4 µM); for `Cc1cccc(NC(=S)NC2CCSc3ccccc32)c1` (configuration not stated), below 0.3 µg/mL.
To `CN1CCN(C(=O)CNC(=O)C23CC4CC(CC(C4)C2)C3)CC1` belongs above 47.9 µg/mL; to `COc1ccc(CNC(=S)NCc2ccc(F)cc2)cc1`, 9.5 µg/mL (≈ 31.2 µM).
To `O=C1NC(=O)C2(CCCc3ccccc32)N1` (configuration not stated) belongs 30.6 µg/mL (≈ 142 µM); to `COc1ccc(CC(=O)NC(=S)Nc2cccc(CO)c2)cc1`, 49.3 µg/mL (≈ 149 µM); to `CCCCn1c(O)c(C(=O)/C=C/c2ccc3c(c2)OCO3)c(=O)[nH]c1=O`, above 53.8 µg/mL.
The compound `Cc1cccc(C(=O)NCCc2ccccc2)c1` returned a kinetic solubility above 35.9 µg/mL.
For `COc1ccc2cc(C3(C)NC(=O)N(CC(=O)N4CCCCC4)C3=O)ccc2c1` (configuration not stated) the value was 14.6 µg/mL (≈ 36.9 µM); for `O=C(COc1ncnc2ccccc12)NC1CCCCC1`, above 42.8 µg/mL; for `COc1ccc(OCCC(=O)OCC(=O)NCCc2ccccc2)cc1`, 52.8 µg/mL (≈ 148 µM).
To `CCCCNC(=S)N1CCC(Cc2ccccc2)CC1` belongs 6.2 µg/mL (≈ 21.3 µM); to `COc1ccc(C(CNS(=O)(=O)c2cccc(F)c2)N2CCCC2)cc1.Cl` (configuration not stated), above 62.2 µg/mL.
Consider `CN(C)/C=C/C(=O)c1ccc(F)cc1F`, for which the solubility (kinetic) was above 31.7 µg/mL.
To `O=C(Nc1ncccn1)c1ccc([N+](=O)[O-])cc1Cl` belongs 27.8 µg/mL (≈ 99.8 µM); to `O=Cc1ccc2c(c1)CCN2Cc1ccccc1`, 15.2 µg/mL (≈ 64.1 µM); to `O=C(CN1CCN(c2ccccc2)CC1)Nc1scc2c1c(=O)oc1ccccc12`, below 0.3 µg/mL.
The compound `CCOc1ccccc1NC(=O)C(NC(=O)C1CCC(C)CC1)C(C)C` (configuration not stated) came in with a solubility (kinetic) of 4.9 µg/mL (≈ 13.6 µM).
In turn, `Cc1ccc(CNC(=O)CCc2c(C)[nH]c(=O)c(C#N)c2C)cc1` displayed a kinetic solubility above 48.5 µg/mL.
For `COc1cc(/C=C/C(=O)OCC(=O)Nc2ccc3c(c2)OCO3)ccc1O` the value was 15.5 µg/mL (≈ 41.7 µM); for `COc1ccccc1NC(=O)COC(=O)c1cc(C)n(C2CC2)c1C`, 3.4 µg/mL (≈ 9.93 µM); for `COc1cc(C(=O)Nc2ccccc2C(=O)Nc2ccccn2)cc(OC)c1OC`, 4.6 µg/mL (≈ 11.3 µM).
For `CCOc1ccc(S(=O)(=O)N2CCN(C(=O)c3ccncc3)CC2)cc1` the value was above 56.3 µg/mL; for `COc1ccc(NC(=O)CCc2nc3ccccc3[nH]2)cc1`, 5.3 µg/mL (≈ 17.9 µM); for `Cc1cccc(OCC2Cn3c(nc4c3c(=O)[nH]c(=O)n4C)O2)c1` (configuration not stated), 9 µg/mL (≈ 27.4 µM).
The compound `COc1ccc(N2C(=O)C(C)C(Cc3ccc(C)cc3)C2=O)cc1` (configuration not stated) registered a solubility (kinetic) of 2.4 µg/mL (≈ 7.42 µM).
To `O=C(Nc1ccccc1)c1cn2ccccc2n1` belongs 14.7 µg/mL (≈ 62 µM); to `COc1ccc(CCN=C(C)c2cc(C)c(C)cc2O)cc1OC`, above 49.1 µg/mL; to `CCN(CC)S(=O)(=O)c1ccc(N2CCc3ccccc3C2)nc1`, 25.8 µg/mL (≈ 74.7 µM).
Regarding `CC(=O)Oc1ccc(-c2ccc(C(=O)OCC(=O)c3c(N)n(C)c(=O)n(C)c3=O)cc2)cc1`, the kinetic solubility was found to be 3.2 µg/mL (≈ 7.09 µM). Against the preceding compound, the solubility kinetic is about 8.1-fold lower.
For `CSCCC(=O)Nc1nc(-c2ccccn2)cs1` the value was above 41.9 µg/mL.
`CCOc1ccccc1NC(=O)c1ccc(CN2CCc3ccccc3C2)cc1` gave a solubility (kinetic) of 2.3 µg/mL (≈ 5.95 µM).
For `CS(=O)(=O)c1cccc(C(=O)OCC(=O)NC(=O)Nc2ccccc2F)c1` the value was 5.2 µg/mL (≈ 13.2 µM); for `O=C(Nc1ccc2c(c1)OCO2)C1CC(=O)N(c2cccc(Cl)c2)C1` (configuration not stated), 0.9 µg/mL (≈ 2.51 µM); for `Cc1c(C(=O)C(=O)N2CCN(C)CC2)c2ccccc2n1C`, above 44.9 µg/mL.
The compound `COc1ccccc1CNc1ncnc2sccc12` had a kinetic solubility of 34.5 µg/mL (≈ 127 µM).
For `CC(=O)Nc1ccc(NC(=O)C(C)OC(=O)c2ccc(S(=O)(=O)N3CCCCCC3)cc2)cc1` (configuration not stated) the value was 9.6 µg/mL (≈ 19.7 µM).
`O=C(COC(=O)/C=C/c1ccc(Cl)cc1Cl)NCc1ccco1` came in with a solubility (kinetic) of 5.9 µg/mL (≈ 16.7 µM).
For `Cc1noc2ncnc(N3CCCCC3)c12`, the solubility (kinetic) is 27.8 µg/mL (≈ 127 µM).
For `CC(=O)c1cccc(OCC(=O)N2CCCc3ccccc32)c1` the value was 44.6 µg/mL (≈ 144 µM); for `OCCC1CN(Cc2cccn2-c2ncccn2)CCN1C1CCCC1` (configuration not stated), 51.5 µg/mL (≈ 145 µM).
In turn, `COc1cc(NC(=O)C(C)C)ccc1NC(=O)c1cc2ccccc2o1` gave a solubility (kinetic) of 0.7 µg/mL (≈ 1.99 µM).
For `CCc1ccccc1NC(=O)CN(C)Cc1c(O)ccc2ccccc12` the value was 22.8 µg/mL (≈ 65.4 µM); for `CCCCCCCn1c(C)nnc1-c1cnn(C)c1N`, above 41.5 µg/mL.
For `CN(C)CCCNC(=O)C(=O)NCC1CCCO1` (configuration not stated) the value was above 38.6 µg/mL.
To `CC1CN(C(=S)Nc2cccc([N+](=O)[O-])c2)CC(C)O1` (configuration not stated) belongs above 44.3 µg/mL; to `COC1(NC(=O)c2ccccc2)C(C)=CC(=O)C=C1C`, 40 µg/mL (≈ 147 µM); to `Cc1nc2c(C)cccc2c2c1COC2`, 18.4 µg/mL (≈ 92.3 µM).
